Assay results: patent US20090291938A1 (TAKEDA PHARMACEUTICAL COMPANY LIMITED, priority 2007, published 2009)

The compounds below were run on HT29 human colorectal adenocarcinoma cell line (assay: cell proliferation assay (Cell Titer-Glo luminescent cell viability assay)). Conditions: HT-29, 72 h, read-out: pIC50 (converted).
Type: cell-based
Method in brief: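 Cells grown in DMEM with 10% FBS and exposed to compounds for 72 h. Viability read by CellTiter-Glo luminescence, expressed as percentage of DMSO-treated cells.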
`COc1cc(C(=O)NC2CCN(C)CC2)ccc1Nc1ncc2c(n1)N(C1CCCCC1)CC(C)(C)C(=O)N2C` [Compound 109, 4-(9-cyclohexyl-5,7,7-trimethyl-6-oxo-6,7,8,9-tetrahydro-5H-pyrimido[4,5-b][1,4]diazepin-2-ylamino)-3-methoxy-N-(1-methylpiperidin-4-yl)benzamide] was tested, and the IC50 was 1 to 2.51 nM. `CN1CCC(NC(=O)c2ccc(Nc3ncc4c(n3)N(C3CCCC3)CC(C)(C)C(=O)N4C)c(O)c2)CC1` [Compound 121] showed an IC50 of 3.16 to 10 nM. For `CC(C)Oc1cc(C(=O)NC2CCN(C)CC2)ccc1Nc1ncc2c(n1)N(C1CCCC1)CC(C)(C)C(=O)N2C` [Compound 122, 4-(9-cyclopentyl-5,7,7-trimethyl-6-oxo-6,7,8,9-tetrahydro-5H-pyrimido[4,5-b][1,4]diazepin-2-ylamino)-3-isopropoxy-N-(1-methylpiperidin-4-yl)benzamide], the IC50 was greater than 10 nM. `CN1CCC(NC(=O)c2ccc(Nc3ncc4c(n3)N(C3CCCC3)CC(C)(C)C(=O)N4C)c(OC(F)F)c2)CC1` [Compound 127, 4-(9-Cyclopentyl-5,7,7-trimethyl-6-oxo-6,7,8,9-tetrahydro-5H-pyrimido[4,5-b][1,4]diazepin-2-ylamino)-3-(difluoromethoxy)-N-(1-methylpiperidin-4-yl)benzamide] gave an IC50 greater than 10 nM. For `CCC1(C)CN(C2CCCC2)c2nc(Nc3ccc(C(=O)NC4CCN(C)CC4)cc3OC)ncc2N(C)C1=O` (centres unmarked) [Compound 131, 4-(9-Cyclopentyl-7-ethyl-5,7-dimethyl-6-oxo-6,7,8,9-tetrahydro-5H-pyrimido[4,5-b][1,4]diazepin-2-ylamino)-3-methoxy-N-(1-methylpiperidin-4-yl)benzamide], the IC50 was 3.16 to 10 nM.

Same assay, conditions: HT-29, cell proliferative assay, HT29 cells, 72 hr treatment, values given as ranges, read-out: pIC50 (converted)
Compound `COc1cc(C(=O)N[C@@H]2CCCNC2)ccc1Nc1ncc2c(n1)N(C1CCCCC1)CC(C)(C)C(=O)N2C` [Compound 110, (R)-4-(9-cyclohexyl-5,7,7-trimethyl-6-oxo-6,7,8,9-tetrahydro-5H-pyrimido[4,5-b][1,4]diazepin-2-ylamino)-3-methoxy-N-(piperidin-3-yl)benzamide] has an IC50 of 1 to 2.51 nM. For `COc1cc(C(=O)N[C@H]2CCCNC2)ccc1Nc1ncc2c(n1)N(C1CCCCC1)CC(C)(C)C(=O)N2C` [Compound 111, (S)-4-(9-cyclohexyl-5,7,7-trimethyl-6-oxo-6,7,8,9-tetrahydro-5H-pyrimido[4,5-b][1,4]diazepin-2-ylamino)-3-methoxy-N-(piperidin-3-yl)benzamide], the IC50 was 1 to 2.51 nM. Work on `COc1cc(C(=O)NN2CCN(C)CC2)ccc1Nc1ncc2c(n1)N(C1CCCCC1)CC(C)(C)C(=O)N2C` [Compound 112, 4-(9-cyclohexyl-5,7,7-trimethyl-6-oxo-6,7,8,9-tetrahydro-5H-pyrimido[4,5-b][1,4]diazepin-2-ylamino)-3-methoxy-N-(4-methylpiperazin-1-yl)benzamide] yielded an IC50 of 1 to 2.51 nM. With `CCN1CCC(NC(=O)c2ccc(Nc3ncc4c(n3)N(C3CCCCC3)CC(C)(C)C(=O)N4C)c(OC)c2)CC1` [Compound 113, 4-(9-cyclohexyl-5,7,7-trimethyl-6-oxo-6,7,8,9-tetrahydro-5H-pyrimido[4,5-b][1,4]diazepin-2-ylamino)-N-(1-ethylpiperidin-4-yl)-3-methoxybenzamide] the IC50 was less than 1 nM. For `COc1cc(C(=O)NC2CCNCC2)ccc1Nc1ncc2c(n1)N(C1CCCCC1)CC(C)(C)C(=O)N2C` [Compound 116, 4-(9-cyclohexyl-5,7,7-trimethyl-6-oxo-6,7,8,9-tetrahydro-5H-pyrimido[4,5-b][1,4]diazepin-2-ylamino)-3-methoxy-N-(piperidin-4-yl)benzamide], the IC50 was 3.16 to 10 nM. Compound `COc1cc(C(=O)NN2CCN(C3CCCC3)CC2)ccc1Nc1ncc2c(n1)N(C1CCCCC1)CC(C)(C)C(=O)N2C` [Compound 117, 4-(9-cyclohexyl-5,7,7-trimethyl-6-oxo-6,7,8,9-tetrahydro-5H-pyrimido[4,5-b][1,4]diazepin-2-ylamino)-N-(4-cyclopentylpiperazin-1-yl)-3-methoxybenzamide] has an IC50 of 3.16 to 10 nM. Compound `COc1cc(C(=O)NC2CNC2)ccc1Nc1ncc2c(n1)N(C1CCCCC1)CC(C)(C)C(=O)N2C` [Compound 118, N-(azetidin-3-yl)-4-(9-cyclohexyl-5,7,7-trimethyl-6-oxo-6,7,8,9-tetrahydro-5H-pyrimido[4,5-b][1,4]diazepin-2-ylamino)-3-methoxybenzamide] has an IC50 of 3.16 to 10 nM. For `COc1cc(C(=O)NC2CCCNCC2)ccc1Nc1ncc2c(n1)N(C1CCCCC1)CC(C)(C)C(=O)N2C` (centres unmarked) [Compound 119, N-(azepan-4-yl)-4-(9-cyclohexyl-5,7,7-trimethyl-6-oxo-6,7,8,9-tetrahydro-5H-pyrimido[4,5-b][1,4]diazepin-2-ylamino)-3-methoxybenzamide], the IC50 was 3.16 to 10 nM. `CCOc1cc(C(=O)NC2CCN(C)CC2)ccc1Nc1ncc2c(n1)N(C1CCCC1)CC(C)(C)C(=O)N2C` [Compound 123, 4-(9-cyclopentyl-5,7,7-trimethyl-6-oxo-6,7,8,9-tetrahydro-5H-pyrimido[4,5-b][1,4]diazepin-2-ylamino)-3-ethoxy-N-(1-methylpiperidin-4-yl)benzamide] was tested, and the IC50 was less than 1 nM. `CCCOc1cc(C(=O)NC2CCN(C)CC2)ccc1Nc1ncc2c(n1)N(C1CCCC1)CC(C)(C)C(=O)N2C` [Compound 124, 4-(9-cyclopentyl-5,7,7-trimethyl-6-oxo-6,7,8,9-tetrahydro-5H-pyrimido[4,5-b][1,4]diazepin-2-ylamino)-N-(1-methylpiperidin-4-yl)-3-propoxybenzamide] was tested, and the IC50 was greater than 10 nM. `CC[C@@]1(C)CN(C2CCCC2)c2nc(Nc3ccc(C(=O)NC4CN(C)C4)cc3OC)ncc2N(C)C1=O` [Compound 132, (S)-4-(9-cyclopentyl-7-ethyl-5,7-dimethyl-6-oxo-6,7,8,9-tetrahydro-5H-pyrimido[4,5-b][1,4]diazepin-2-ylamino)-3-methoxy-N-(1-methylazetidin-3-yl)benzamide] was tested, and the IC50 was 3.16 to 10 nM. `CC[C@@]1(C)CN(C2CCCC2)c2nc(Nc3ccc(C(=O)NN4CCN(C)CC4)cc3OC)ncc2N(C)C1=O` [Compound 133, (S)-4-(9-cyclopentyl-7-ethyl-5,7-dimethyl-6-oxo-6,7,8,9-tetrahydro-5H-pyrimido[4,5-b][1,4]diazepin-2-ylamino)-3-methoxy-N-(4-methylpiperazin-1-yl)benzamide] was tested, and the IC50 was greater than 10 nM. `CC[C@@]1(C)CN(C2CCCC2)c2nc(Nc3ccc(C(=O)N[C@@H]4CCCNC4)cc3OC)ncc2N(C)C1=O` [Compound 134, 4-((S)-9-cyclopentyl-7-ethyl-5,7-dimethyl-6-oxo-6,7,8,9-tetrahydro-5H-pyrimido[4,5-b][1,4]diazepin-2-ylamino)-3-methoxy-N-((R)-piperidin-3-yl)benzamide] was tested, and the IC50 was 3.16 to 10 nM. `CCC1(C)CN(C2CCCCC2)c2nc(Nc3ccc(C(=O)NC4CN(C)C4)cc3OC)ncc2N(C)C1=O` (centres unmarked) [Compound 140, 4-(9-cyclohexyl-7-ethyl-5,7-dimethyl-6-oxo-6,7,8,9-tetrahydro-5H-pyrimido[4,5-b][1,4]diazepin-2-ylamino)-3-methoxy-N-(1-methylazetidin-3-yl)benzamide] showed an IC50 of 3.16 to 10 nM. `CCC1(C)CN(C2CCCCC2)c2nc(Nc3ccc(C(=O)N[C@H]4CC[C@H](O)CC4)cc3OC)ncc2N(C)C1=O` (stereo partly drawn) [Compound 141, 4-(9-cyclohexyl-7-ethyl-5,7-dimethyl-6-oxo-6,7,8,9-tetrahydro-5H-pyrimido[4,5-b][1,4]diazepin-2-ylamino)-N-((1R,4R)-4-hydroxycyclohexyl)-3-methoxybenzamide] was tested, and the IC50 was 3.16 to 10 nM.
